Results reported in article PMC10327353 (Breast Cancer Research : BCR, 2023).

Assay: Phase 1 study: safety and tolerability
Type: in vivo
Description: The maximum tolerated dose (MTD) of DZD1516 was defined based on safety data and the Bayesian optimal interval (BOIN) design (Additional file 1). The definition of DLT is provided in Additional file 1.
The AE grading was assessed according to the NCI-Common Terminology Criteria for Adverse Events (CTCAE) (version 5.0) and was monitored until 28 days after the last dose.
Eligible patients received single oral dosing of DZD1516 on Cycle 0 Day 1 (C0D1), followed by a 7-day washout. Twice daily oral dosing (bid) of DZD1516 was commenced from C1D1 in a continuous 21-day cycle until disease progression, unacceptable toxicity, or withdrawal of consent. All doses were taken under fed conditions (within 30 minutes after a meal).
Planned dosing consisted of 25, 50, 100, 200, 300, and 400 mg. Each dose escalation cohort will comprise a minimum of three and a maximum of six evaluable patients (except only one patient in the starting dose cohort). The maximum tolerated dose of DZD1516 was defined according to safety data and the Bayesian optimal interval (BOIN) design. Dose escalation/de-escalation rule with target toxicity rate for the MTD is 0.30 with interval of (0.20, 0.33).
DLTs were any adverse event (AE) not clearly attributable to the patient’s disease, including ≥ grade 4 hematological toxicities present for ≥ 4 days, grade 3 thrombocytopenia with bleeding, or grade 4 thrombocytopenia lasting for > 5 days, ≥ grade 3 non-hematological toxicities that is dose-limiting in the judgment of the investigators. Any other toxicity that is greater than that at baseline, is clinically significant or unacceptable, and is judged to be a DLT by the SRC. Exceptions included alopecia of any grade and isolated grade 3 laboratory change without clinical sequelae or clinical significance.
Safety evaluations were conducted at screening, on Day 1, 8, and 15 of Cycle 1, on Day 1 of each subsequent treatment cycle, at the end-of-treatment visit, and clinically indicated. Safety assessments included clinical laboratory measurements (hematology, chemistry, coagulation, and urinalysis), electrocardiogram (ECG), Echocardiogram/MUGA scan, ECOG performance status, vital signs, and physical examinations.

SMILES: COc1cc(O[C@H]2CCN(C)CC2(F)F)c2c(Nc3ccc(Oc4ccn5ncnc5c4)c(C)c3)ncnc2c1 [DZD1516]
- Nervous system disorders, Any Grade (50 mg (N = 4)): 1 (25.0) n (%)
- Nervous system disorders, ≥ Grade 3 (50 mg (N = 4)): 0 (0.0) n (%)
- Participants with any TEAE, Any Grade (50 mg (N = 4)): 3 (75.0) n (%)
- Participants with any TEAE, ≥ Grade 3 (50 mg (N = 4)): 0 (0.0) n (%)
- Platelet count decreased, Any Grade (50 mg (N = 4)): 1 (25.0) n (%)
- Platelet count decreased, ≥ Grade 3 (50 mg (N = 4)): 0 (0.0) n (%)
- Proteinuria, Any Grade (50 mg (N = 4)): 1 (25.0) n (%)
- Proteinuria, ≥ Grade 3 (50 mg (N = 4)): 0 (0.0) n (%)
- Renal and urinary disorders, Any Grade (50 mg (N = 4)): 1 (25.0) n (%)
- Renal and urinary disorders, ≥ Grade 3 (50 mg (N = 4)): 0 (0.0) n (%)
- Subjects with any TEAE (50 mg (N = 4)): 3 (75.0) n (%)
- Subjects with any drug-related TEAE (50 mg (N = 4)): 3 (75.0) n (%)
- Vomiting, Any Grade (50 mg (N = 4)): 0 (0.0) n (%)
- Vomiting, ≥ Grade 3 (50 mg (N = 4)): 0 (0.0) n (%)
- White blood cell count decreased, Any Grade (50 mg (N = 4)): 1 (25.0) n (%)
- White blood cell count decreased, ≥ Grade 3 (50 mg (N = 4)): 0 (0.0) n (%)
- Alanine aminotransferase increased, Any Grade (100 mg (N = 4)): 0 (0.0) n (%)
- Alanine aminotransferase increased, ≥ Grade 3 (100 mg (N = 4)): 0 (0.0) n (%)
- Anemia, Any Grade (100 mg (N = 4)): 1 (25.0) n (%)
- Anemia, ≥ Grade 3 (100 mg (N = 4)): 0 (0.0) n (%)
- Any TEAE: Grade 3 (100 mg (N = 4)): 1 (25.0) n (%)
- Any TEAE: Leading to death (100 mg (N = 4)): 0 (0.0) n (%)
- Any TEAE: Leading to dose reduction (100 mg (N = 4)): 0 (0.0) n (%)
- Any TEAE: Leading to treatment discontinuation (100 mg (N = 4)): 0 (0.0) n (%)
- Any TEAE: Leading to treatment interruption (100 mg (N = 4)): 1 (25.0) n (%)
- Any TEAE: SAE (100 mg (N = 4)): 1 (25.0) n (%)
- Aspartate aminotransferase increased, Any Grade (100 mg (N = 4)): 0 (0.0) n (%)
- Aspartate aminotransferase increased, ≥ Grade 3 (100 mg (N = 4)): 0 (0.0) n (%)
- Blood and lymphatic system disorders, Any Grade (100 mg (N = 4)): 1 (25.0) n (%)
- Blood and lymphatic system disorders, ≥ Grade 3 (100 mg (N = 4)): 0 (0.0) n (%)
- Blood bilirubin increased, Any Grade (100 mg (N = 4)): 0 (0.0) n (%)
- Blood bilirubin increased, ≥ Grade 3 (100 mg (N = 4)): 0 (0.0) n (%)
- Cardiac disorders, Any Grade (100 mg (N = 4)): 0 (0.0) n (%)
- Cardiac disorders, ≥ Grade 3 (100 mg (N = 4)): 0 (0.0) n (%)
- Constipation, Any Grade (100 mg (N = 4)): 1 (25.0) n (%)
- Constipation, ≥ Grade 3 (100 mg (N = 4)): 0 (0.0) n (%)
- Decreased appetite, Any Grade (100 mg (N = 4)): 1 (25.0) n (%)
- Decreased appetite, ≥ Grade 3 (100 mg (N = 4)): 0 (0.0) n (%)
- Dizziness, Any Grade (100 mg (N = 4)): 1 (25.0) n (%)
- Dizziness, ≥ Grade 3 (100 mg (N = 4)): 0 (0.0) n (%)
- Drug-related TEAE: Grade 3 (100 mg (N = 4)): 1 (25.0) n (%)
- Drug-related TEAE: Leading to death (100 mg (N = 4)): 0 (0.0) n (%)
- Drug-related TEAE: Leading to dose reduction (100 mg (N = 4)): 0 (0.0) n (%)
- Drug-related TEAE: Leading to treatment discontinuation (100 mg (N = 4)): 0 (0.0) n (%)
- Drug-related TEAE: Leading to treatment interruption (100 mg (N = 4)): 1 (25.0) n (%)
- Drug-related TEAE: SAE (100 mg (N = 4)): 1 (25.0) n (%)
- Fatigue, Any Grade (100 mg (N = 4)): 1 (25.0) n (%)
- Fatigue, ≥ Grade 3 (100 mg (N = 4)): 0 (0.0) n (%)
- Gastrointestinal disorders, Any Grade (100 mg (N = 4)): 2 (50.0) n (%)
- Gastrointestinal disorders, ≥ Grade 3 (100 mg (N = 4)): 1 (25.0) n (%)
- General disorders and administration site conditions, Any Grade (100 mg (N = 4)): 1 (25.0) n (%)
- General disorders and administration site conditions, ≥ Grade 3 (100 mg (N = 4)): 0 (0.0) n (%)
- Headache, Any Grade (100 mg (N = 4)): 2 (50.0) n (%)
- Headache, ≥ Grade 3 (100 mg (N = 4)): 0 (0.0) n (%)
- Hemoglobin decreased, Any Grade (100 mg (N = 4)): 0 (0.0) n (%)
- Hemoglobin decreased, ≥ Grade 3 (100 mg (N = 4)): 0 (0.0) n (%)
- Investigations, Any Grade (100 mg (N = 4)): 3 (75.0) n (%)
- Investigations, ≥ Grade 3 (100 mg (N = 4)): 1 (25.0) n (%)
- Lipase increased, Any Grade (100 mg (N = 4)): 0 (0.0) n (%)
- Lipase increased, ≥ Grade 3 (100 mg (N = 4)): 0 (0.0) n (%)
- Malaise, Any Grade (100 mg (N = 4)): 0 (0.0) n (%)
- Malaise, ≥ Grade 3 (100 mg (N = 4)): 0 (0.0) n (%)
- Metabolism and nutrition disorders, Any Grade (100 mg (N = 4)): 3 (75.0) n (%)
- Metabolism and nutrition disorders, ≥ Grade 3 (100 mg (N = 4)): 0 (0.0) n (%)
- Musculoskeletal and connective tissue disorders, Any Grade (100 mg (N = 4)): 0 (0.0) n (%)
- Musculoskeletal and connective tissue disorders, ≥ Grade 3 (100 mg (N = 4)): 0 (0.0) n (%)
- Nausea, Any Grade (100 mg (N = 4)): 0 (0.0) n (%)
- Nausea, ≥ Grade 3 (100 mg (N = 4)): 0 (0.0) n (%)
- Nervous system disorders, Any Grade (100 mg (N = 4)): 3 (75.0) n (%)
- Nervous system disorders, ≥ Grade 3 (100 mg (N = 4)): 0 (0.0) n (%)
- Participants with any TEAE, Any Grade (100 mg (N = 4)): 4 (100.0) n (%)
- Participants with any TEAE, ≥ Grade 3 (100 mg (N = 4)): 1 (25.0) n (%)
- Platelet count decreased, Any Grade (100 mg (N = 4)): 1 (25.0) n (%)
- Platelet count decreased, ≥ Grade 3 (100 mg (N = 4)): 0 (0.0) n (%)
- Proteinuria, Any Grade (100 mg (N = 4)): 0 (0.0) n (%)
- Proteinuria, ≥ Grade 3 (100 mg (N = 4)): 0 (0.0) n (%)
- Renal and urinary disorders, Any Grade (100 mg (N = 4)): 1 (25.0) n (%)
- Renal and urinary disorders, ≥ Grade 3 (100 mg (N = 4)): 0 (0.0) n (%)
- Subjects with any TEAE (100 mg (N = 4)): 4 (100.0) n (%)
- Subjects with any drug-related TEAE (100 mg (N = 4)): 4 (100.0) n (%)
- Vomiting, Any Grade (100 mg (N = 4)): 2 (50.0) n (%)
- Vomiting, ≥ Grade 3 (100 mg (N = 4)): 1 (25.0) n (%)
- White blood cell count decreased, Any Grade (100 mg (N = 4)): 0 (0.0) n (%)
- White blood cell count decreased, ≥ Grade 3 (100 mg (N = 4)): 0 (0.0) n (%)
- Alanine aminotransferase increased, Any Grade (200 mg (N = 5)): 0 (0.0) n (%)
- Alanine aminotransferase increased, ≥ Grade 3 (200 mg (N = 5)): 0 (0.0) n (%)
- Anemia, Any Grade (200 mg (N = 5)): 1 (20.0) n (%)
- Anemia, ≥ Grade 3 (200 mg (N = 5)): 0 (0.0) n (%)
- Any TEAE: Grade 3 (200 mg (N = 5)): 1 (20.0) n (%)
- Any TEAE: Leading to death (200 mg (N = 5)): 0 (0.0) n (%)
- Any TEAE: Leading to dose reduction (200 mg (N = 5)): 0 (0.0) n (%)
- Any TEAE: Leading to treatment discontinuation (200 mg (N = 5)): 0 (0.0) n (%)
- Any TEAE: Leading to treatment interruption (200 mg (N = 5)): 0 (0.0) n (%)
- Any TEAE: SAE (200 mg (N = 5)): 0 (0.0) n (%)
- Aspartate aminotransferase increased, Any Grade (200 mg (N = 5)): 1 (20.0) n (%)
- Aspartate aminotransferase increased, ≥ Grade 3 (200 mg (N = 5)): 0 (0.0) n (%)
- Blood and lymphatic system disorders, Any Grade (200 mg (N = 5)): 1 (20.0) n (%)
- Blood and lymphatic system disorders, ≥ Grade 3 (200 mg (N = 5)): 0 (0.0) n (%)
- Blood bilirubin increased, Any Grade (200 mg (N = 5)): 2 (40.0) n (%)
- Blood bilirubin increased, ≥ Grade 3 (200 mg (N = 5)): 0 (0.0) n (%)
- Cardiac disorders, Any Grade (200 mg (N = 5)): 1 (20.0) n (%)
- Cardiac disorders, ≥ Grade 3 (200 mg (N = 5)): 0 (0.0) n (%)
- Constipation, Any Grade (200 mg (N = 5)): 1 (20.0) n (%)
- Constipation, ≥ Grade 3 (200 mg (N = 5)): 0 (0.0) n (%)
- Decreased appetite, Any Grade (200 mg (N = 5)): 0 (0.0) n (%)
- Decreased appetite, ≥ Grade 3 (200 mg (N = 5)): 0 (0.0) n (%)
- Dizziness, Any Grade (200 mg (N = 5)): 0 (0.0) n (%)
- Dizziness, ≥ Grade 3 (200 mg (N = 5)): 0 (0.0) n (%)
- Drug-related TEAE: Grade 3 (200 mg (N = 5)): 1 (20.0) n (%)
- Drug-related TEAE: Leading to death (200 mg (N = 5)): 0 (0.0) n (%)
- Drug-related TEAE: Leading to dose reduction (200 mg (N = 5)): 0 (0.0) n (%)
- Drug-related TEAE: Leading to treatment discontinuation (200 mg (N = 5)): 0 (0.0) n (%)
- Drug-related TEAE: Leading to treatment interruption (200 mg (N = 5)): 0 (0.0) n (%)
- Drug-related TEAE: SAE (200 mg (N = 5)): 0 (0.0) n (%)
- Fatigue, Any Grade (200 mg (N = 5)): 1 (20.0) n (%)
- Fatigue, ≥ Grade 3 (200 mg (N = 5)): 0 (0.0) n (%)
- Gastrointestinal disorders, Any Grade (200 mg (N = 5)): 3 (60.0) n (%)
- Gastrointestinal disorders, ≥ Grade 3 (200 mg (N = 5)): 0 (0.0) n (%)
- General disorders and administration site conditions, Any Grade (200 mg (N = 5)): 2 (40.0) n (%)
- General disorders and administration site conditions, ≥ Grade 3 (200 mg (N = 5)): 0 (0.0) n (%)
- Headache, Any Grade (200 mg (N = 5)): 1 (20.0) n (%)
